Reference: the supplement of paper PMC10307832

Experiments:
Test in all cases: relative viability (nuclei count vs DMSO), 5 days (fraction); higher = more cells survive
[1] = compound: C1CNCCC1C2=CC(=NN2)C3=CC=NC=C3 + COc1cccc2cc(-c3nc([C@H]4CC[C@H](C(=O)O)CC4)n4ncnc(N)c34)[nH]c12 [OSI-027] (partner 0.5 µM)
Outline: (§1)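 Lung cancer cell lines in 1536-well plates were dosed by pin tool the day after seeding, either with one drug alone or with a fixed anchor-drug dose plus five library-drug doses (not always all listed) in √10 steps. After 5 days, cells were fixed and their nuclei stained in one step (final 0.05% Triton X-100, 1% formaldehyde, 1 ug/ml Hoechst), then counted on 4× images. Relative viability is the nuclei count in treated wells divided by that in vehicle wells. Values are medians of duplicate plates.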

[2] = compound: C[C@@H](N)c1ccc(C(=O)Nc2ccnc3[nH]ccc23)cc1 + CC(C)C[C@H](NC(=O)[C@H](Cc1ccccc1)NC(=O)c1cnccn1)B(O)O [Bortezomib] (partner 0.002 µM)
Outline: as §1

Tanzisertib + Bortezomib = compound: O[C@H]1CC[C@H](Nc2ncc3nc(Nc4c(F)cc(F)cc4F)n([C@H]4CCOC4)c3n2)CC1 [Tanzisertib] + CC(C)C[C@H](NC(=O)[C@H](Cc1ccccc1)NC(=O)c1cnccn1)B(O)O [Bortezomib] (partner 0.002 µM)
Outline: as §1

[3] = compound: C1CNCCC1C2=CC(=NN2)C3=CC=NC=C3 + N=C(N)NC(=N)NCCc1ccccc1 [Phenformin] (partner 250 µM)
Outline: as §1

| Cell Line | relative viability ([1]; first compound 0.08 µM) | relative viability ([1]; first compound 0.8 µM) | relative viability ([1]; first compound 2.53 µM) | relative viability ([1]; first compound 8 µM) | relative viability ([2]; first compound 0.04 µM) | relative viability ([2]; first compound 0.1265 µM) | relative viability ([2]; first compound 0.4 µM) | relative viability ([2]; first compound 1.265 µM) | relative viability ([2]; first compound 4 µM) | relative viability (Tanzisertib + Bortezomib; first compound 0.08 µM) | relative viability (Tanzisertib + Bortezomib; first compound 0.253 µM) | relative viability (Tanzisertib + Bortezomib; first compound 0.8 µM) | relative viability (Tanzisertib + Bortezomib; first compound 2.53 µM) | relative viability (Tanzisertib + Bortezomib; first compound 8 µM) | relative viability ([3]; first compound 0.08 µM) | relative viability ([3]; first compound 0.8 µM) | relative viability ([3]; first compound 2.53 µM) | relative viability ([3]; first compound 8 µM) |
| --- | --- | --- | --- | --- | --- | --- | --- | --- | --- | --- | --- | --- | --- | --- | --- | --- | --- | --- |
| NCI-H2228 | 0.61 | 0.653 | 0.649 | 0.689 | 1.42 | 1.18 | 1.31 | 0.932 | 1.01 | 1.11 | 0.948 | 1.08 | 0.801 | 0.721 | 0.328 | 0.368 | 0.286 | 0.359 |
| NCI-H2347 | 0.494 | 0.291 | 0.442 | 0.487 | 0.955 | 1.02 | 1.08 |  | 1.09 | 0.737 | 0.837 | 1.27 | 1.29 | 0.628 | 0.398 | 0.225 | 0.412 | 0.48 |
| NCI-H2405 | 0.72 | 0.627 | 0.731 | 0.674 | 0.895 | 0.973 | 0.903 | 0.274 | 0.491 | 1.03 | 1.02 | 1.07 | 0.975 | 0.794 | 0.44 | 0.285 | 0.385 | 0.383 |
| NCI-H3122 | 0.856 | 1.02 | 1.05 | 0.981 | 1.05 | 0.979 | 1.04 | 1 | 0.912 | 1.06 | 1.02 | 1.04 | 1.03 | 1.01 | 0.329 | 0.414 | 0.402 | 0.364 |
| PC-3 [JPC-3] | 0.827 | 0.776 | 0.835 | 0.705 | 0.838 | 0.892 | 0.856 | 0.921 | 0.729 | 0.875 | 0.931 | 0.847 | 0.739 | 0.716 | 0.499 | 0.447 | 0.494 | 0.463 |
| PC-14 | 0.722 | 1.12 | 0.986 | 0.822 | 0.832 | 0.836 | 0.874 | 0.923 | 0.755 | 1.05 | 0.878 | 0.879 | 1.01 | 0.585 | 0.529 | 0.684 | 0.743 | 0.579 |
| RERF-LC-KJ | 0.537 | 0.521 | 0.581 | 0.576 | 1.19 | 1.21 | 1.2 | 1.24 | 1.12 | 1.17 | 1.01 | 1.04 | 1.07 | 1.02 | 0.391 | 0.429 | 0.438 | 0.406 |
| SK-LU-1 | 0.386 | 0.346 | 0.346 | 0.342 | 0.886 | 1.54 | 1.01 | 0.753 | 0.743 | 1.07 | 1.19 | 1.3 | 1.18 | 0.493 | 0.498 | 0.41 | 0.529 | 0.57 |
| SW 1573 |  | 0.666 | 0.727 | 0.752 | 1.08 | 1.01 | 0.939 | 0.968 | 0.7 | 1.09 | 1.09 | 0.946 | 1.15 | 0.712 |  | 0.365 | 0.376 | 0.471 |
